Assay results reported in patent US20230126992A1, “Antibacterial Antiviral Pharmaceutical Composition and Application Thereof” (priority 2020, published 2023).
Several values for one entry are separate records, joined by “and”; a condition that tells them apart may be missing. Equal values may be shown once. Where a name gives a salt, the structure may show the parent alone. Read-outs that look alike come from different tables or passages of the source.

Columns and labels:
[1] = system: SARS-CoV-2; experiment: Test of direct killing of virus; assay type: cell-based
[2] = system: SARS-CoV-2; experiment: Inhibition of Vero E6 cell death induced by SARS-CoV-2, simultaneous addition of drug and virus; conditions: for Inhibition rate to SARS-CoV-2 induced cell death: simultaneous addition
[3] = system: SARS-CoV-2; experiment: microbe, parasite or virus in culture
[4] = system: Vero E6 cells; experiment: Toxicity test to Vero E6 cells (CCK8); conditions: 3 days
[5] = system: SARS-CoV-2; conditions: for Inhibition rate to SARS-CoV-2 induced cell death: drug 1 hour after infection
[6] = system: tracheal excretion of phenol red of mice; experiment: Tracheal excretion of phenol red in mice; conditions: dose 30 mg/kg intragastric, 7 days; 546 nm
[7] = system: asthma of guinea pigs induced by acetylcholine and histamine phosphate; experiment: Asthmatic guinea pigs induced by acetylcholine combined with histamine phosphate (Example 9)
[8] = system: asthma of guinea pigs induced by acetylcholine and histamine phosphate; experiment: Asthmatic guinea pigs induced by acetylcholine combined with histamine phosphate (Example 3)
[9] = system: LPS-induced fever in rats; experiment: LPS induced rat fever model; conditions: dose 200 mg/kg
[10] = system: capillary discharge sputum volume in rats; experiment: Capillary discharge sputum volume in rats (Example 9); conditions: dose 0.2 g/kg intragastric, 7 days
[11] = system: capillary discharge sputum volume in rats; experiment: Capillary discharge sputum volume in rats (Example 3); conditions: dose 200 mg/kg intragastric, 7 days; 2 h collection
[12] = system: acute pharyngitis rats; experiment: Acute pharyngitis model in rat, serum IL-6 and TNF-α by ELISA; conditions: dose 5 mg/kg, 3 days
[13] = system: influenza virus FM1; assay type: in vivo, ICR mice
[14] = system: influenza virus FM1; assay type: in vivo, ICR mice; conditions: dose 27.5 mg/kg, 7 days
[15] = system: influenza virus FM1; assay type: in vivo, ICR mice; conditions: dose 27.5 mg/kg
[16] = system: concentrated ammonia water induced cough in mice; experiment: Concentrated ammonia water induced cough test in mice (Example 9, dropping pills); assay type: in vivo, ICR mice; conditions: dose 0.02 g/kg intragastric, 7 days
[17] = system: concentrated ammonia water induced cough in mice; experiment: Concentrated ammonia water induced cough test in mice (Example 3); assay type: in vivo, ICR mice; conditions: dose 20 mg/kg intragastric, 7 d
[18] = simultaneous addition of the drug and virus
[19] = concentration 0.064 μM, 0.064 µM
[20] = addition of the drug after infection
[21] = dose 0.06 g/kg intragastric, 7 days
[22] = dose 60 mg/kg intragastric, 7 d
[23] = lung tissue homogenate, dose 27.5

## OO [Example H2O2, H2O2]
[1]; 0.01% incubated with virus 0 min
  Inhibition rate (killing effect): 82.13 ± 8.64% and 92.94 ± 6.31%
[1]; 0.01% incubated with virus 5 min
  Inhibition rate (killing effect): 98.16 ± 18.42% and 99.25 ± 2.95%
[1]; 0.01% incubated with virus 10 min
  Inhibition rate (killing effect): 89.87 ± 7.26% and 98.25 ± 2.36%
[1]; 0.01% incubated with virus 30 min
  Inhibition rate (killing effect): 102.74 ± 8.56% and 102.50 ± 14.39%
[1]; 0.01% incubated with virus 60 min
  Inhibition rate (killing effect): 95.28 ± 10.93% and 101.35 ± 11.45%

## CCC(CC)COC(=O)[C@H](C)N[P@](=O)(OC[C@H]1O[C@@](C#N)(c2ccc3c(N)ncnn23)[C@H](O)[C@@H]1O)Oc1ccccc1 [Remdesivir]
[2]; Severe acute respiratory syndrome coronavirus 2, Vero C1008, read-out: Inhibition rate to SARS-CoV-2 induced cell death, simultaneous addition, concentration 0.32 μM
  inhibition at 0.32 µM: 21.3 ± 12.8%
[2]; Severe acute respiratory syndrome coronavirus 2, Vero C1008, read-out: Inhibition rate to SARS-CoV-2 induced cell death, simultaneous addition, concentration 1.6 μM
  inhibition at 1.6 µM: 56 ± 7.66%
[2]; Severe acute respiratory syndrome coronavirus 2, Vero C1008, read-out: Inhibition rate to SARS-CoV-2 induced cell death, simultaneous addition, concentration 8 μM
  inhibition at 8 µM: 89.2 ± 1.29%
[2]; Severe acute respiratory syndrome coronavirus 2, Vero C1008, read-out: Inhibition rate to SARS-CoV-2 induced cell death, simultaneous addition, concentration 40 μM
  inhibition at 40 µM: 95.8 ± 8.77%
[2]; Severe acute respiratory syndrome coronavirus 2, Vero C1008, read-out: Inhibition rate to SARS-CoV-2 induced cell death, simultaneous addition, concentration 200 μM
  inhibition at 200 µM: 98.9 ± 3.47%
[2]; Severe acute respiratory syndrome coronavirus 2, Vero C1008, simultaneous addition of the drug and virus
  IC50: 1120 ± 52 nM
[2]; [18]
  IC50: 1160 nM and 1080 nM
  TI (CC50/IC50): > 178.89
[2]; [19]
  Inhibition rate to SARS-CoV-2 induced cell death: 2.80 ± 2.11% and 9.23 ± 5.11%
[2]; concentration 0.32 μM, 0.32 µM
  Inhibition rate to SARS-CoV-2 induced cell death: 26.39 ± 6.35%
[2]; concentration 1.6 μM, 1.6 µM
  Inhibition rate to SARS-CoV-2 induced cell death: 59.24 ± 13.49%
[2]; concentration 8 μM, 8 µM
  Inhibition rate to SARS-CoV-2 induced cell death: 78.78 ± 9.66%
[2]; concentration 40 μM, 40 µM
  Inhibition rate to SARS-CoV-2 induced cell death: 91.04 ± 3.06%
[2]; concentration 200 μM, 200 µM
  Inhibition rate to SARS-CoV-2 induced cell death: 94.82 ± 0.89%
[3]; Severe acute respiratory syndrome coronavirus 2, Vero C1008, 1 h, read-out: Inhibition rate to SARS-CoV-2 induced cell death, drug 1 hour after infection, concentration 0.064 μM
  inhibition at 0.064 µM: 7.48 ± 11.8%
[3]; Severe acute respiratory syndrome coronavirus 2, Vero C1008, 1 h, read-out: Inhibition rate to SARS-CoV-2 induced cell death, drug 1 hour after infection, concentration 0.32 μM
  inhibition at 0.32 µM: 46.3 ± 15.2%
[3]; Severe acute respiratory syndrome coronavirus 2, Vero C1008, 1 h, read-out: Inhibition rate to SARS-CoV-2 induced cell death, drug 1 hour after infection, concentration 1.6 μM
  inhibition at 1.6 µM: 61.5 ± 6.96%
[3]; Severe acute respiratory syndrome coronavirus 2, Vero C1008, 1 h, read-out: Inhibition rate to SARS-CoV-2 induced cell death, drug 1 hour after infection, concentration 8 μM
  inhibition at 8 µM: 73.4 ± 3.67%
[3]; Severe acute respiratory syndrome coronavirus 2, Vero C1008, 1 h, read-out: Inhibition rate to SARS-CoV-2 induced cell death, drug 1 hour after infection, concentration 40 μM
  inhibition at 40 µM: 91.2 ± 9.91%
[3]; Severe acute respiratory syndrome coronavirus 2, Vero C1008, 1 h, read-out: Inhibition rate to SARS-CoV-2 induced cell death, drug 1 hour after infection, concentration 200 μM
  inhibition at 200 µM: 100 ± 9.98%
[3]; Severe acute respiratory syndrome coronavirus 2, Vero C1008, addition of the drug after infection
  IC50: 825 ± 128 nM
[4]; concentration 0.064 μM
  Cell survival rate: 101.58 ± 3.33% and 95.44 ± 10.01%
[4]; concentration 0.32 μM
  Cell survival rate: 99.55 ± 10.53% and 93.59 ± 6.96%
[4]; concentration 1.6 μM
  Cell survival rate: 91.37 ± 10.73% and 98.11 ± 7.16%
[4]; concentration 8 μM
  Cell survival rate: 87.35 ± 4.25% and 90.08 ± 1.88%
[4]; concentration 40 μM
  Cell survival rate: 76.24 ± 8.59% and 77.22 ± 11.23%
[4]; concentration 200 μM
  Cell survival rate: 53.84 ± 3.48% and 71.58 ± 3.12%
[5]; [20]
  IC50: 734 nM and 915 nM
  TI (CC50/IC50): > 242.42
[5]; [19]
  Inhibition rate to SARS-CoV-2 induced cell death: 6.51 ± 7.08%
[5]; concentration 0.32 μM, 0.32 µM
  Inhibition rate to SARS-CoV-2 induced cell death: 28.39 ± 11.56%
[5]; concentration 1.6 μM, 1.6 µM
  Inhibition rate to SARS-CoV-2 induced cell death: 53.50 ± 3.37%
[5]; concentration 8 μM, 8 µM
  Inhibition rate to SARS-CoV-2 induced cell death: 92.29 ± 6.68%
[5]; concentration 40 μM, 40 µM
  Inhibition rate to SARS-CoV-2 induced cell death: 94.31 ± 5.01%
[5]; concentration 200 μM, 200 µM
  Inhibition rate to SARS-CoV-2 induced cell death: 98.83 ± 2.97%

## Nc1c(Br)cc(Br)cc1CN[C@H]1CC[C@H](O)CC1 [ambroxol hydrochloride]
[6]
  Tracheal excretion amount of phenol red: 0.566 ± 0.201 OD value

## Cn1c(=O)c2[nH]cnc2n(C)c1=O [aminophylline]
[7]; 0.06 g/kg group, before administration (baseline)
  Asthma incubation period, pre-administration: 36.9 ± 5.8 s
[7]; [21]
  asthma incubation period, Post-administration: 95.3 ± 37.6 s
  asthma incubation period, extension value (post-pre): 58.4 ± 32.1 s
[8]; 60 mg/kg group, before administration (baseline)
  asthma incubation period, Pre-administration: 33.1 ± 9.2 s
[8]; [22]
  asthma incubation period, Post-administration: 123.4 ± 50.3 s
  asthma incubation period, extension value (post-pre): 90.3 ± 51.1 s

## CC(=O)Oc1ccccc1C(=O)O [aspirin]
[9]; 1 h after LPS
  Temperature difference (ΔT): 0.10 ± 0.34 °C
[9]; 2 h after LPS
  Temperature difference (ΔT): 0.43 ± 0.29 °C
[9]; 3 h after LPS
  Temperature difference (ΔT): 0.42 ± 0.24 °C
[9]; 4 h after LPS
  Temperature difference (ΔT): 0.46 ± 0.34 °C
[9]; 5 h after LPS
  Temperature difference (ΔT): 0.79 ± 0.17 °C
[9]; 6 h after LPS
  Temperature difference (ΔT): 0.88 ± 0.18 °C
[9]; 7 h after LPS
  Temperature difference (ΔT): 0.53 ± 0.24 °C

## N[C@@H](CSCC(=O)O)C(=O)O [carbocisteine]
[10]
  Sputum excretion volume: 21.56 ± 4.41 cm
[11]
  Sputum excretion volume: 18.11 ± 4.32 cm

## C[C@@H]1C[C@H]2[C@@H]3CCC4=CC(=O)C=C[C@]4(C)[C@@]3(F)[C@@H](O)C[C@]2(C)[C@@]1(O)C(=O)CO [dexamethasone]
[12]
  IL-6: 146.3 ± 10.4 pg/mL
  TNF-α: 218.2 ± 5.8 pg/mL

## CCOC(=O)C1=C[C@@H](OC(CC)CC)[C@H](NC(C)=O)[C@@H](N)C1 [oseltamivir]
[13]; dose 27.5 mg/kg intraperitoneal, 7 days
  Lung index: 0.89 ± 0.20
[13]; [23]
  IL-8: 80.3 ± 15.3 pg/mL
  TNF-α: 65.2 ± 17.5 pg/mL
[14]
  Lung index: 0.95 ± 0.13
  Lung index inhibition rate: 41.0%
[15]
  Lung index: 0.89 ± 0.17

## CCN(CC)CCOCCOC(=O)C1(c2ccccc2)CCCC1 [pentoxyverine citrate]
[16]
  Cough incubation period: 23.3 ± 4.2 s
  Frequency of cough: 40.6 ± 12.5 time/2 min
[17]
  Cough incubation period: 26.3 ± 3.3 s
  Frequency of cough: 55.8 ± 14.7 time/2 min
